Test results published in US8916686B2, “TDF-related compounds and analogs thereof” (Thrasos Innovation, Inc., priority 2004, dated 2014).
Where two headings read alike, the source gives them in different places.

What was measured:
[1] = test system: renal toxic effects of cisplatin in the rat; assay: Cisplatin renal toxicity in male Sprague-Dawley rat; type: in vivo
Description: Compound (SEQ ID #45) was tested in male Sprague-Dawley rats (250 gm to 300 gm) to establish the dose range and the extent to which the compound is able to prophylactically and therapeutically ameliorate the renal toxic effects of cisplatin. The cisplatin dosing level was the chemotherapeutic level used in humans, 40 ug/kg bw. The end points were the level of creatinine in serum and kidney histology. The positive control used was 250 ug/kg bw of the mature form of recombinant human BMP-7 (rhmBMP-7).
A stock solution (70 mg/ml) of the test article (SEQ ID #45) was made by dissolving it in 20 mM Acetate (ph 4.2). The stock solution was further diluted into phosphate buffered saline (PBS, pH 7.2) plus 5% Mannitol to compound concentrations of 14 mg/ml (28 mg/kg dose), 1.4 mg/ml (2.8 mg/kg dose) and 0.14 mg/ml (0.28 mg/kg dose).
Cisplatin was administered via i.p. injection (40 ug/kg bw) at time zero. Administration of therapeutic dosing of the compound, the rhmBMP-7 positive control and vehicle negative control were by slow bolus i.v. injection through the tail vein at five time points: 2 hours before the administration of cisplatin, then at 24 hours, 48 hours, 72 hours and 96 hours post cisplatin administration. Blood samples were collected through the tail vein at time points of 0, 24, 48, 72 and 96 hours. At seven day sample was collected by exsanguination at sacrifice. Serum was prepared from the blood samples and analyzed for creatinine concentration. The serum concentration of creatinine, a byproduct of muscle activity that is released into the blood stream and cleared through the kidneys, is a marker of kidney function that tends to rise when kidney function becomes severely compromised (FIG. 18).
Upon sacrifice at seven days, the kidneys were harvested, fixed in formalin and imbedded in paraffin. They were then sagitally sectioned and stained in H&E stain. Kidney sections were also stained with anti-bodies against proliferating cell nuclear antigen (PCNA) (to identify sites of cell regeneration), macrophages, ICAM-1, and smooth muscle. Also collected at sacrifice were tissues at and around the injection site (FIG. 19A-FIG. 19B).

ALK-3 = ALK-3 (Homo sapiens, UniProt P36894); assay: Radioligand receptor binding assay (competition with 125I-labeled TDF-1)
From the text: General protocol: These assays are based on competition between ^125I-labeled TDF-1 (BMP-7 or OP-1) and candidate TDFRP compounds or unlabeled TDF-1 for binding to respective receptors (ALK-3, ALK-6 or BMPR-2). In brief, the procedure involves immobilization of receptor on 96 well Removawell plates, blocking the wells with 3% BSA in PBS and subsequently washing the wells. Increasing concentrations of unlabeled TDF-1 or TDFRP compounds or control (unlabeled TDF-1) prepared in binding buffer are then added. Incubate plate for 1 hour at room temperature, and then add a fixed amount of ^125I-labeled TDF-1 (250,000 to 350,000 cpm) to the wells and further incubate in cold (4° C.) for 20 hours. Aspirate the contents of the wells and wash the wells four times with a wash buffer, and count the receptor bound ^125I-labeled TDF-1 in an auto gamma counter.
Using this procedure, TDFRP compound binding to select ALK receptors are assessed. Accordingly, TDFRP compounds that preferentially bind select ALK receptors can be identified. For example, TDFRP compounds that preferentially bind to ALK-3 receptor compared with binding to other ALK receptors, e.g., ALK-6 (FIG. 1 and FIG. 11).

[2] = test system: rat after ligation of the coronary artery; assay: LAD occlusion model of myocardial injury (ischemia/reperfusion); type: in vivo
Description: The efficacy of compound SEQ ID #45 in ameliorating the effects of myocardial ischemia was investigated in the rat after ligation of the coronary artery. […] unmanipulated rats, sorted into two large groups by initial body weight (>300 g pre-surgery) were evaluated. Fourteen rats underwent surgery on week, 12 rats underwent surgery on week 2 and rats were sorted into 3 treatment groups: Group 1, PBS; Group 2, positive control TDF-1; Group 3, test article SEQ ID #45 (see Table X).
Three days prior to surgery, a serum sample was collected from the tail vein of each rat (pre-bleed). On the day of surgery, each rat was administered compound intravenously 2 hr prior to surgery. Surgery was performed sequentially after intubation and ventilation with 0.5% isofluorane anesthetic. Lead II ECG was monitored throughout the surgery. A thoracotomy was performed and the main left coronary artery was occluded for 20 min using a snare technique (FIG. 16). Successful occlusion of the artery was confirmed by ST elevation in lead II ECG within the first 5 minutes of ligation, and by frequent ventricular arrhythmia after 10 minutes of ligation. The snare was released to restore blood flow. The original suture loop was left in place for subsequent re-occlusion on Day 7. After initiation of reperfusion, the chest cavity was closed with 2 layers of suture. Rats were weaned from the ventilator and observed until fully conscious and mobile. Antibiotic (QD) and analgesic (Q8D) were provided. Additional serum samples were collected 6, 24, 72 and 120 hours post occlusion. Additional compound, positive control or vehicle treatments were delivered by intravenous injection in the tail vein at 24, 72 and 120 hours post occlusion.
On Day 7, each rat was anesthetized (ketamine:xyline), the chest cavity re-opened and a terminal blood sample (1 ml) was withdrawn from the abdominal vein. Gross pathology (i.e. inflammation) was noted and graded on a 4 point inflammation scale: 0=no inflammation, 1=slight, 2=moderate, 3=severe and 4=complete pericarditis. The left coronary artery was then re-occluded using the existing stitch and a concentrated solution of Evans Blue dye in saline (20 mg/ml; 0.5 ml/rat) was injected into the heart apex to stain the non-ischemic cardiac tissue blue. The heart was then arrested by injection of a saturated solution of potassium chloride into the right ventricle. The heart was then excised, wrapped in cellophane and stored at −20° C. for 1.5 hour. The cold heart was cut into 10 cross-sectional slices (2 mm/slice) and each section was numbered and incubated separately in triphenyltetrazolium chloride (1% TTC in PBS) for 10 minutes at 37° C. prior to fixing in 4% formaldehyde. Subsequently, each slice was photographed. For each slice, the “area at risk (AR)” and the “area occupied by necrosis (AN)” were measured by morphometry. The ratio of AN to AR is a measure of the degree of damage resulting from the occlusion (FIG. 17A-FIG. 17B).

Chain of ALK-3 (P36894 24-532, species assumed): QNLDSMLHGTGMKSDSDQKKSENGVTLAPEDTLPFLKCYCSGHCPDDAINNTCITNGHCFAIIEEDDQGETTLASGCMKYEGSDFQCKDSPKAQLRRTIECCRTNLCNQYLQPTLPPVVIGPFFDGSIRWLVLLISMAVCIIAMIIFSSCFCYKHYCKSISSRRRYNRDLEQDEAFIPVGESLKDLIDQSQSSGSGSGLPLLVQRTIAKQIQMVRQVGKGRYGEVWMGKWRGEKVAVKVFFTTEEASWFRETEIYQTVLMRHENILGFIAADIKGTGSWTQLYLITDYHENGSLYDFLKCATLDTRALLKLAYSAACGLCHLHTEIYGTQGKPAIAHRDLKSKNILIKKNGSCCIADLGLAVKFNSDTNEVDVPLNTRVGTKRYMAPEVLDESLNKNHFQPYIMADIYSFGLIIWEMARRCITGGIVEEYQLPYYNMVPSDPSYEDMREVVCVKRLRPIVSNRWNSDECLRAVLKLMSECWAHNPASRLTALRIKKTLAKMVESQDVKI

CYFDDSSNVLCKKYRS [SEQ ID NO 45]
cisplatin-induced inflammation of the kidney cortex ([1]; 2.8 mg/kg bw): significantly reduced
ICAM-1 release ([1]; 2.8 mg/kg bw, kidney sections): reduced
degree of cellular regeneration (PCNA) ([1]; 2.8 mg/kg bw, kidney sections): increased
macrophage infiltration ([1]; 2.8 mg/kg bw, kidney sections): reduced
smooth muscle loss ([1]; 2.8 mg/kg bw, kidney sections): reduced
cisplatin-induced level of creatinine in serum ([1]; 0.28, 2.8 and 28 mg/kg bw i.v.): reduces the cisplatin-induced level of creatinine in serum
reduction of serum creatinine rise following cisplatin, versus positive control ([1]; highest dose (28 mg/kg), positive control rhmBMP-7): more efficacious than the positive control
nephrotoxic effects of cisplatin exposure ([1]; rat, in vivo): can reduce or ameliorate the nephrotoxic effects of cisplatin exposure
differential binding to Type I receptors (ALK-3 compared to ALK-6) (ALK-3): selectively binds to ALK-3
differential binding to Type I receptors (ALK-3 compared to ALK-6) (ALK-3; listed as SEQ ID NO:45): binds preferentially to BMP type I receptors (ALK3)
degree of cardiac inflammation ([2]; LAD occlusion model): reduces the degree of cardiac inflammation
necrotic area to area at risk ratio (IA/AR) ([2]; LAD occlusion model): reduces the necrotic area to area at risk ratio (IA/AR)
reduction in inflammation score as compared to PBS-treated animals ([2]; day 7, 10 mg/kg i.v., 4 point inflammation scale): 78%
reduction in AN/AR ratio as compared to PBS-treated animals ([2]; day 7, compound 10 mg/kg i.v., rhmBMP-7 160 μg/kg i.v.): 84%
inflammation and cytotoxic effects toward cardiomyocytes following myocardial infarction ([2]; myocardial ischemia and reperfusion injury): ameliorate inflammation and cytotoxic effects toward cardiomyocytes
